In patent publication US10106777B2, “Directed differentiation and maturation of pluripotent cells into hepatocyte like cells by modulation of Wnt-signalling pathway” (Takara Bio Europe AB, priority 2010, dated 2018):

Experiments:
hiPS cells [1] = tested on: hiPS cells
hES cells [2] = tested on: hES cells
Experimental: FIGS. 6A and B. hES cells cultured with and without the GSK3 inhibitor were compared for their hepatic profile and homogeneity, as described in examples 12 and 13. Where a GSK3 inhibitor was added it was added at a later stage of the differentiation, according to FIG. 3B.
A) Results from Activity Assay of CYP1A, 3A and 2C. […] The cells were 30 days, n=8. hPS vs hPS+BIO.B)

[3] = tested on: UDP-glucuronyltransferases (UGTs); assay: UGT metabolic activity in hESC-HEP from feeder-free hESC; type: cell-based, human
From the text: FIG. 11. Relative expression levels of UGT hepatic metabolic markers in hESC-HEP generated with or without Wnt-signalling modulation by GSK-3 inhibitor BIO during endoderm to hepatocyte-like cell phase. FC=fold change relative expression, control set […] to 1 for each example. Graphs show expression levels in cells treated with one of three differentiation/maturation protocols (see example 21) and +/−GSK-3 inhibitor treatment for activity of UGTs on specific UGT substrates: (UGT1A1,[8-estradiol]); (UGT2B, [8-estradiol]; (UGT1A6, [1-Napthol]), (UGT1A9, [Propofol]), (UGT2B7, [Naloxone]). A non-specific control (Methylumbelliferone) was also included. n=number of experiments averaged to obtain results.
Metabolic activity of hESC-HEP derived from hESCs cultured in feeder-free conditions (see Examples 12-14) was measured to determine the effect of GSK-3 inhibition during development and maturation by examining the activity of several UDP-glucuronyltransferases (UGTs) (enzymes that participate in the metabolism of many drugs). Activity of these UGTs was tested via several substrates, namely: β-estradiol (UGT1A1, 3-glucuronide), 1-naphthol (UGT1A6), propofol (UGT1A9), and naloxone (UGT2B7). A non-specific control (Methylumbelliferone) was also included (see FIGS. 12A-B). hESC-HEPs were differentiated essentially according to Example 12, up to day 7. […]

[4] = tested on: hESC derived hepatocytes (hESC-HEP)
Experimental: Analysis are performed at day 16-18 (n=7-8), 20-21 (n=5) and 25 (n=2) respectively, mean±SD.
MEF-cultured hESCs (hES cells cultured on feeder cells) were differentiated into hepatocyte-like cells according to examples 4, 8 and 9, thus comparing the absence of BIO, a GSK3-inhibitor (Example 4), to the influence of BIO during the maturation step (day 10-26) in maturation medium I and II (MM I and MM II)(Example 8 and 9 respectively). Before adding the first medium, ID day 0-2, the cultures were washed thoroughly with PBS, twice. The different mediums were prepared freshly and added day 0 (DE day 0-1), 2 (DE day 2-4), 4 and 7-10 every other to third day (VH1), 10-26 every second or third day (MMI or MM II). […] Cells were counted in a Bürker chamber and seeded out in 0.1% gelatine coated culture units (e.g. in 24-well plates) at a cell density of 150 to 250K cells per cm^2.
At day 16, 18, 20, 21 and 25 hESC-HEP cultures were analyzed for cytochrome P450 1A activity by incubating the substrate Phenacetine to a final concentration of 26 μM in Phenol Red-free Williams Medium E, supplemented with 0.1% Penicilline-Streptomycin 2 mM L-Glutamine and 25 mM Hepes. […] Samples were analysed by Liquid chromatography-mass spectrometry (LC-MS) LCMS for presence of the metabolite Paracetamol, biotransformed by the cytochrome p450 enzymes Cyp1A2, 1A1.

[5] = tested on: hESC derived hepatocytes (hESC-HEP); assay: Morphological observation of purity and homogeneity of hESC-HEP cultures; type: cell-based, human
Experimental: FIGS. 8A-E. Differentiation of hESC derived hepatocytes in the presence of GSK3 inhibitor from day 3 purifies hepatocytes from other cell types.
A-C show hESC-HEP at day 17, differentiated by protocol i or ii according to FIG. 2. D-E show hESC-HEP at day 15, differentiated by protocol iii or vi according to FIG. 2,
B) 1 μM BIO day 3-9, protocol ii.
C) 5 μM BIO day 3-9, protocol ii.
D) 0 μM BIO day 3-9, 1.5 μM BIO day 10-15 protocol iii,
E) 3.5 μM BIO day 3-9, 1.5 μM BIO day 10-15 protocol vi.
A and B show hESC-HEP cultures which are over grown by another cell type where as in C the majority of cells in the culture are hepatocyte-like cells. E represent a purer hESC-HEP culture than D. White arrow: hepatocyte-like cells, black arrow: other cell type than hepatocyte-like cells. Scale bar: 100 μm.
(§1) Thus it appears advantageous to add GSK-3 inhibitors at a later stage of differentiation to avoid massive cell death seen when it is added at day 3. […] In addition, GSK3 inhibitors at this stage may contribute/stimulate to hepatic induction of the competent endoderm.

MEF cultured hESC = assay: Cell death on addition of BIO at day 3 of differentiation; type: cell-based, human
Experimental: as §1

[6] = tested on: feeder free cultured hPS cells; assay: Hepatic gene marker expression in hepatocyte-like cells from feeder free hESC; type: cell-based, human; settings: with vs without GSK3 inhibitor
Experimental: The split media (SM) gave the same levels as without split media. Two controls were used undifferentiated cells cultured feeder free (UD feeder free) and a perpetual cell line from a hepatocellular carcinoma (HepG2). The levels of AFP, KRT18 (Keratin 18) and KRT19 (Keratin 19) indicate that the cells are maintained in a stage where they still have the ability to proliferate. The cells were 23 days when they were analyzed, n=3.

hiPS cells [7] = tested on: hiPS cells; remark: listed apart in the source
Experimental: FIGS. 5A and B. hiPS cells cultured with and without the GSK3 inhibitor were compared for their hepatic profile and homogeneity. Where a GSK3 inhibitor was added it was added at a later stage of the differentiation, according to FIG. 3. Derivation of hepatocytes from human induced pluripotent stem cells (hiPS).
The cells were 30 days, n=8. hiPS vs hiPS+BIO.
The undifferentiated hiPS cells were cultured in Activin A supplemented media to stimulate initial differentiation into partly differentiated cells. The hiPS derived partly differentiated cells were then passaged (to plates coated with 0.1% Gelatin or Matrigel 0.016 mM) and induced to hepatic progenitor cells and then to hepatocyte like cells in media with and without BIO supplementation, see FIG. 3 A)-B).
The hiPS cells were cultured on mEFs until they were confluent. The cells were washed twice in PBS+/+ and treated with Activin A containing medium (See FIG. 3 a-b). The cells adapted an endoderm like morphology around day 3. When the majority of the cells were partly differentiated, the cells were exposed to media supplemented with factors inducing the cells into hepatocyte-like cells (See FIG. 3A)-B)) plus or minus BIO.

[8] = tested on: hESC-HEP (cell-line SA002)
Experimental: Qrt-PCR data is presented as fold change gene expression levels of HepG2 except for BSEP, which graph show fold change of calibrator. N=2-3, mean±SEM.
hESC-HEP were derived from cell-line SA002 cultures on mEF-layer according to Example 9, FIG. 2, protocol iii (absence of BIO between day 3-10) or Example 11, FIG. 2, protocol iv (presence of 3.5 μM BIO between day 3-10). Total RNA was collected and isolated from the two hES-HEP cultures at day 21, 24, 26 and 28 by using RNA isolation kit from Qiagene. Quantitative reverse transcriptase PCR, QrtPCR, by using Taqman probes, was performed for the following hepatic marker genes: phase I drug metabolizing enzymes; CYP (cytochrome P450) 3A4, 3A5, 3A7, 2C9, phase II drug metabolizing enzymes GSTA1 (glutation-S-transferas A1), UGT2B7 (UDP glucuronosyltransferase 2B7), phase III, transporters; MRP2 (multi-drug residence protein 2), BSEP (bile salt export pump), and general hepatic markers; A1AT (alpha-1 antitrypsin), ALB (albumin) and TAT (tyrosine-amino transferas). All data was normalised to the house-keeping gene CREB. RNA from HepG2 cultures was included and data is presented as fold change of HepG2. […] Thus, BSEP expression is instead presented as fold change of a so called calibrator which contains RNA from different sources.

hES cells [9] = tested on: hES cells; remark: listed apart in the source
Experimental: Where a GSK3 inhibitor was added it was added at a later stage of the differentiation, according to FIG. 3B.
B) Results of hepatic markers from Q-PCR of the same cells that were analysed by Activity assay (Q-PCR hPS+/−BIO) n=4.

[10] = tested on: feeder free cultured hPS cells
Experimental: Feeder free cultured hPS cells with and without the GSK3 inhibitor, as well as an alternative method where a split media as described in FIG. 3C were compared for their hepatic profile and homogeneity.
A) Results from Activity assay of CYP1A and CYP3A measured by conversion of paracetamol and OH_midazolam respectively.
hESCs cultured under feeder free conditions were incubated in media supplemented with Activin A. The cells were then induced into hepatocytes by differentiating them to hepatic progenitor cells and then to more mature hepatocyte like cells. Cells cultured with and without the GSK3 inhibitor were compared for their hepatic profile and homogeneity.

Beta-catenin = assay: Immunolocalisation of Beta-catenin in hES-HEP; type: cell-based, human
From the text: C) Immunolocalisation of Beta-catenin and Dapi staining of hES-HEP-BIO (A) and hES-HEP+BIO (B) Beta-catenin is localized at the cell membrane in hES-HEP cultures not treated and treated with BIO. […] Day 21, 20×

hESC-HEP [11] = assay: Hepatic marker expression in hESC-HEP, GSK-3 inhibitors at later stage (from day 10); type: cell-based, human; settings: GSK-3 inhibitor from day 10, compared to BIO
From the text: FIGS. 12A and B. Relative expression levels of hepatic markers in hESC-HEP generated with modulation of Wnt-signalling by GSK-3 inhibitors other than BIO during later maturation period (day 10 onwards). Treatments shown include: hESC-HEP (negative control; cells never exposed to GSK-inhibitor during differentiation), BIO, SB216763, Kenpaullone, Indirubin-3-O; also included is a second negative control undifferentiated hESC cells (hESC). […] GSK-3 inhibitors were present only during later differentiation (from day 10 onwards); also included is a further negative control graph showing the expression levels of a housekeeping gene (Creb) across the various samples.
Furthermore, differentiating cells were exposed to GSK-3 inhibitors only during later (from day 10) stages of differentiation. Three alternative GSK-3 inhibitors were tested alongside BIO to determine effectiveness in inducing hepatic marker expression (SB216763, Kenpaullone and Indirubin-3-O) and results were compiled both for Phase I and Phase II enzymes and hepatic markers, with two negative controls (hESC-HEP not exposed to GSK-3 inhibition during differentiation, and undifferentiated hESC cells). […]

hESC-HEP [12] = assay: Hepatic marker expression in hESC-HEP, GSK-3 inhibitors at mid and late stage; type: cell-based, human; settings: Kenpaullone 0.23 μM days 3-9, 2.5 μM days 10-23, compared to BIO
From the text: FIGS. 13A and B. Relative expression levels of hepatic markers in hESC-HEP generated with modulation of Wnt-signalling by GSK-3 inhibitors other than BIO during both mid (days 3-9) and late stage (days 10-23) differentiation. Treatments shown include: hESC-HEP (negative control; cells never exposed to GSK-inhibitors), BIO, SB216763, Kenpaullone, Indirubin-3-O; also included is a second negative control undifferentiated hESC cells (hESC); also included is a further negative control graph showing the expression levels of a housekeeping gene (Creb) across the various samples.
Differentiating cells were exposed to GSK-3 inhibitors during both mid (days 3-9) and late (from day 10-23) stages of differentiation. Three alternative GSK-3 inhibitors were tested alongside BIO to determine effectiveness in inducing hepatic marker expression (SB216763, Kenpaullone and Indirubin-3-O) and results were compiled both for Phase I enzymes and Phase II enzymes and hepatic markers, with two negative controls (hESC-HEP not exposed to GSK-3 inhibition during differentiation, and undifferentiated hESC cells). During days 3-9 of differentiation, concentrations of GSK-3 inhibitors used were as follows: BIO 3.5 μM, SB216763 34 nM, Kenpaullone 0.23 μM and Indirubin-3-O 22 nM. […]

[13] = tested on: hESC-HEP cultures (cell line SA002); assay: Functional CYP1A activity in hESC-HEP cultures with NaB together with BIO; type: cell-based, human; settings: NaB 1 mM together with BIO 1.4 μM at day 21-25, vs parallel cultures without NaB
Experimental: FIG. 9. […] Analysis is performed day 24-25, n=1.
Cell line SA002 from mEF cultures was used as starting material.

SMILES: O=C1Nc2cc(Br)ccc2/C1=C1/Nc2ccccc2/C1=N\O [BIO, (2′Z,3′E)-6-Bromoindirubin-3′-oxime]
- expression of CYP1A1, CYP1A2, CYP3A4 and CYP7A1 (hiPS cells [1]): clear increase
- levels of CYP2C9 (hiPS cells [1]): maintained high
- mRNA of CD44, AFP, CK18, CK19, CYP1A1, CYP1A2, CYP3A4, CYP2C9, CYP7A1, Albumin, OATP2, A1AT, MRP2 (hiPS cells [1]): Increased
- mRNA of CYP1A1, CYP1A2, CYP3A4, CYP2C9, CYP7A1, MRP2, CD44, AFP, CK18, CK19 (hiPS cells [1]): Increased
- AAT (hiPS cells [1]; hiPS+/−BIO, n=4): maintained on a high level
- AFP levels (hiPS cells [1]; hiPS+/−BIO, n=4): decreased
- Albumin (hiPS cells [1]; hiPS+/−BIO, n=4): maintained at a level high compared to known protocols
- transporters such as MRP2, Oct-1, GSTA1, BCEP and OATP2 (hiPS cells [1]; hiPS+/−BIO, n=4, vs HepG2): maintained at levels significantly higher than HepG2
- maturity of hiPS derived cells (Q-PCR, immunocytochemistry, Activity Assay) (hiPS cells [1]; media supplemented with BIO vs absence of GSK-3 inhibitor): became more mature
- activity of CYP1A (hES cells [2]): increased
- activity of CYP2C (hES cells [2]): increased
- activity of CYP3A (hES cells [2]): increased
- increase of UGT1A1 activity ([3]; +/− BIO 1.4 μM days 14-25): much greater than for others
- activity of most of the UGTs ([3]; +/− BIO 1.4 μM days 14-25, three differentiation protocols): greater activity
- Cyp1A activity over time [4]: increased during time
- culture purity (morphology) ([5]; 3.5 μM BIO from day 3 (Example 11) vs untreated (Example 9)): more purified hESC-HEP compared to untreated cultures
- culture homogeneity (morphology) ([5]; 5 μM BIO from day 3, surviving cells passaged day 4): highly purified and homogenous culture of hESC-HEP
- final purity of the cell populations ([5]; BIO addition at a later stage (day 10+)): greater final purity
- culture homogeneity (morphology) ([5]; low concentration (1 μM) of BIO, day 3-9): highly heterogeneous cultures where hardly any hepatocyte-like cells were observed
- cell death (MEF cultured hESC; 3.5 μM BIO from day 3, compared to 5 μM BIO): less dramatic cell death
- cell death (MEF cultured hESC; 5 μM BIO day 3): dramatic cell death
- hepatic gene marker expression (FIG. 4B) [6]: higher
- CYP1A activity (hiPS cells [7]): Increased
- CYP3A activity (hiPS cells [7]): Increased
- activity of CYP1A (hiPS cells [7]): increased
- activity of CYP3A (hiPS cells [7]): increased
- metabolic activity (FIG. 5A) (hiPS cells [7]): greater metabolic activity
- A1AT expression ([8]; BIO supplemented at day 3): strong increase at day 28
- ALB expression ([8]; BIO supplemented at day 3): decreased at day 26
- GSTA1 and UGT2B7 expression ([8]; BIO supplemented at day 3): increased expression
- MRP2 and BSEP expression ([8]; BIO supplemented at day 3): increased expression
- TAT expression levels ([8]; with BIO vs without BIO, all days): higher expression levels
- expression of CYP1A1, CYP1A2, CYP3A4, CYP2C9 and CYP7A1 (hES cells [9]): clear increase
- AAT (hES cells [9]; hPS+/−BIO, n=4): increase
- transporters such as MRP2, Oct-1, GSTA1, BCEP and OATP2 (hES cells [9]; hPS+/−BIO, n=4): maintained at levels showing a maturation
- metabolic activity (FIG. 4A) [10]: higher
- Beta catenin in the cytoplasm and nuclei (Beta-catenin; BIO treated hES-HEP cultures, Day 21): commonly observed
- beta-catenin localisation (Beta-catenin; upon BIO treatment): translocate from cell membrane to nucleus

SMILES: O=C1Cc2c([nH]c3ccc(Br)cc23)-c2ccccc2N1 [Kenpaullone, 9-Bromo-7,12-dihydro-indolo[3,2-d][1]benzazepin-6(5H)-one]
- expression of most of the Phase I enzymes and hepatic markers (hESC-HEP [11]): higher levels of expression than BIO
- expression of most of the Phase I enzymes (hESC-HEP [12]): higher levels of expression than BIO

SMILES: CCCC(=O)[O-].[Na+] [NaB, Sodium Butyrate]
- CYP1A activity [13]: increased
